One test deals with HDAC 1-3. Kind of test: HDAC 1-3 assay (BioVision kit, HeLa nuclear extract). The conditions noted are these: Compound tested at 1 uM.
The target of test [1] is HDAC 4 human recombinant enzyme (Homo sapiens, UniProt P56524). Kind of test: HDAC 4 assay (BPS Bioscience kit). The conditions noted are these: Compound tested at 1 uM.
Description: (§1) For HDAC 4-8 assays, kits from BPS Bioscience (https://bpsbioscience.com/) were used and their recommended protocols followed. […] Each compound was dissolved in DMSO to generate a 100 μM stock solution, then diluted using HPLC-grade water to prepare 10 μM, 2 μM, and 1 μM solutions. These solutions were used for the assays. […] Assays utilized a BioTek Synergy H1 microplate reader and black Nunc MicroWell 96-well optical-bottom plates with polymer base.
(§2) HDAC 4 (and, by analogy, HDAC 5, 6, 7, and 8): 40 μL of the parent solution was added to each well on the plate. The parent solution was prepared from a fluorogenic HDAC substrate, a 1 mg/mL solution of bovine serum albumin (BSA) in water, and HDAC assay buffer. 5 μL of the inhibitor buffer (10% DMSO in water) was added to the wells designated as “Blank” and “Positive Control” (no inhibitor). 5 μL of the test compound was added to each well designated as “Test Inhibitor”. Different concentrations of TSA (for a standard curve) was added to each well designated as “Standard.” 5 μL of HDAC assay buffer was added to the “Blank” wells. […] Afterwards, the plate was analyzed using a BioTek Synergy H1 microplate reader, taking two independent readings per well that were subsequently averaged.
Test [2] has as its system HEK293 cells that express an HTT exon containing 17 glutamine repeats (HTT17Q-mCherry). Kind of test: Huntington's Disease (HD) model: protein aggregates (puncta) per cell in HEK293H cells transfected with HTT17Q-mCherry. The conditions noted are these: for Effect on aggregate suppression compared to the MAL1-271 positive control: Example 1, FIG. 2, 10 μM compound, 6 h; for Activity in cell based HD assay (active analogs of Hsp70 agonist): summary of Example 1.
Description: Cells were stained for confocal microscope imaging with 4′,6-diamidino-2-phenylindole (DAPI), a fluorescent dye with high affinity to adenine-thymine rich DNA regions. A bright spot detection tool was used to identify and quantify the number of protein aggregates (“dots”) per cell.
Biological Assays: For HD assays, HEK293H cells were grown in DMEM (Sigma-Aldrich, Saint Louis, MO) supplemented with 10% fetal bovine serum (GE Healthcare Hyclone) and 1% penicillin/streptomycin (Thermo Fisher Scientific, Waltham, MA) at 37° C. and at a 5% CO2 atmosphere. Cells were seeded at 250,000 cells/plate in Poly-D-Lysine Coated 35 mm MatTek dishes (P35GC-1.5-10-C, MatTek Corporation, Ashland, MA). After 24 h growth, a total of 4 μg of mCherry tagged-polyglutamine-expanded (17-polyQ-expanded) huntingtin (HTT) was introduced using Lipofectamine 2000 (Invitrogen, Thermo Fisher Scientific) according to the manufacturer's instructions. […] The following day, cells were treated with vehicle (DMSO) as control or with 10 μM of the examined compounds for 6 h. The cells were then washed with PBS and fixed in 4% formaldehyde for 15 min at room temperature. Finally, cells were stained with DAPI (1:250 in PBS) for 4 h and maintained in PBS for confocal microscope imaging.
Complete volumes of cells were acquired at 0.5-μm steps, and volumes were reconstructed and analyzed using Nikon's NIS-Elements software (Nikon Instrument, Melville, NY). Bright spot detection tool was used to identify and quantify the number of protein aggregates (“dots”) per cell. A non-parametric Kruskal-Wallis test analysis was performed using Prism software (GraphPad, La Jolla, CA). Statistically significant differences between control (DMSO) and compound treated samples are indicated by asterisks in figure. To obtain representative images from this experiment, maximum intensity projections of 0.5-μm steps though the entire cell were generated using Nikon's NIS-Elements software.
Cells were stained for confocal microscope imaging with 4′,6-diamidino-2-phenylindole (DAPI) and bright spot detection tool was used to identify and quantify the number of protein aggregates (“dots”) per cell.

A further test deals with T1, HDAC 7 (Homo sapiens, UniProt Q8WUI4).
T1 sequence (Q8WUI4 1-952): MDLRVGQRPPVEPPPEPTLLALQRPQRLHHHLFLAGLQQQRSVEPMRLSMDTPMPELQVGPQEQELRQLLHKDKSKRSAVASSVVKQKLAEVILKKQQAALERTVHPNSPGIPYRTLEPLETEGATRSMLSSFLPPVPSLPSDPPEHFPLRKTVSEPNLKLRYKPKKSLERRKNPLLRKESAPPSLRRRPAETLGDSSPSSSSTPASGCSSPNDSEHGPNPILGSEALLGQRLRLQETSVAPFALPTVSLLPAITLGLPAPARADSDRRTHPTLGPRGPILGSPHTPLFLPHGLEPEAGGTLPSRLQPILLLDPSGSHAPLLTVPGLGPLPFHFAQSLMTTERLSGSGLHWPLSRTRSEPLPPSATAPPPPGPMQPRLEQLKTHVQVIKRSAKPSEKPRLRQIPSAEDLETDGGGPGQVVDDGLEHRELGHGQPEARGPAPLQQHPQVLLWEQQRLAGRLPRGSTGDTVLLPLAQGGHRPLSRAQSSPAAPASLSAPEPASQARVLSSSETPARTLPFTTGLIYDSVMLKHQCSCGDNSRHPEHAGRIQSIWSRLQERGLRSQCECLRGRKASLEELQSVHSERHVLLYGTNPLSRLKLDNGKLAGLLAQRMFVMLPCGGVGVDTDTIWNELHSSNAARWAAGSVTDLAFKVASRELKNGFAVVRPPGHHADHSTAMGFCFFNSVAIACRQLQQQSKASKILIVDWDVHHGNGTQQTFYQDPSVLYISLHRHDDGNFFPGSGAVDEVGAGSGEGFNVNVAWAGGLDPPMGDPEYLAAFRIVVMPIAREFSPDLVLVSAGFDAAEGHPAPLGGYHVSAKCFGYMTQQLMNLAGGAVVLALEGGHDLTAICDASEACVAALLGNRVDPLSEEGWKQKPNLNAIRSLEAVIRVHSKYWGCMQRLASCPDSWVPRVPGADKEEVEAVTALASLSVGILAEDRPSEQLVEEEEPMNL
Kind of test: HDAC 7 assay (BPS Bioscience kit).

The target in another test is HDAC 5 (Homo sapiens, UniProt Q9UQL6). Kind of test: HDAC 5 assay (BPS Bioscience kit).
Sequence of HDAC 5 (Q9UQL6 whole entry): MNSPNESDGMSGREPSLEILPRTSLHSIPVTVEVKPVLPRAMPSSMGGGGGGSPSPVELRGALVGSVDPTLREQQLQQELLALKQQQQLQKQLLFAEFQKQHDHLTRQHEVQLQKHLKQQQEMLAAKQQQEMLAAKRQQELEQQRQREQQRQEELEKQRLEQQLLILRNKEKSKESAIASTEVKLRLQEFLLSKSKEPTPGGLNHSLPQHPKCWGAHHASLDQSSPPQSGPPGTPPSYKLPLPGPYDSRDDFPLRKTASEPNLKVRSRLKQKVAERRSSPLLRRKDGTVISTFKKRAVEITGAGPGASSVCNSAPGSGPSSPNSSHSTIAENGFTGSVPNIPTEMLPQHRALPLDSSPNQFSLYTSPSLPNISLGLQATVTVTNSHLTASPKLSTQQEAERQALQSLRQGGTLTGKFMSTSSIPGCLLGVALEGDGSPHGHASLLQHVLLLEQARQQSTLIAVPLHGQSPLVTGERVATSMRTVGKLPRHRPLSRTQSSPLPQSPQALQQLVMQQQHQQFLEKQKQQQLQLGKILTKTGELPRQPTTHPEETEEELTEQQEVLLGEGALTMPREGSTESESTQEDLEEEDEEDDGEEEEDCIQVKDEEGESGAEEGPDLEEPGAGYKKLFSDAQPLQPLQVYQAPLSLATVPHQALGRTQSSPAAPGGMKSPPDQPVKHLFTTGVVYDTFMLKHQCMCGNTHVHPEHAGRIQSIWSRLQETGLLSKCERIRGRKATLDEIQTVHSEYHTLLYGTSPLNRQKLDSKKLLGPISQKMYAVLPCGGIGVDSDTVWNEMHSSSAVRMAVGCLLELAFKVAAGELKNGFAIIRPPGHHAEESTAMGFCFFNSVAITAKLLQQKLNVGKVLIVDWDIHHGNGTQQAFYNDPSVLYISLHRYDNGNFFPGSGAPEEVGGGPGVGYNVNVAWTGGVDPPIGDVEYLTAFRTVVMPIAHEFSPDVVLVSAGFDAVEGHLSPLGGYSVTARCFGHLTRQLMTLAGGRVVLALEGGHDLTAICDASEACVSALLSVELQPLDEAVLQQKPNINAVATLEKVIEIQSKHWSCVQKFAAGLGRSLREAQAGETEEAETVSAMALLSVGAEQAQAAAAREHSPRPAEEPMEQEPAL
Another test has as its target T2, HDAC 8 (Homo sapiens, UniProt Q9BY41).
T2 sequence (Q9BY41 1-377): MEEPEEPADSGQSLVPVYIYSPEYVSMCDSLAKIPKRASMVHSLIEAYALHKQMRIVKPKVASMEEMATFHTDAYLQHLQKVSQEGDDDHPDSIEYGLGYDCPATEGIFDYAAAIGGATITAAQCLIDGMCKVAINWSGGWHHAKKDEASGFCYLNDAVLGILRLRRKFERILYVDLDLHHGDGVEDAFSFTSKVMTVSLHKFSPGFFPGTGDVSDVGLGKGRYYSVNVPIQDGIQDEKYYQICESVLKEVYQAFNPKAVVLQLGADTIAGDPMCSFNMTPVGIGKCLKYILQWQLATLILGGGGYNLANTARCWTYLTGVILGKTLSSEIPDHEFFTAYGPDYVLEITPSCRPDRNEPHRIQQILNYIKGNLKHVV
Kind of test: HDAC 8 assay (BPS Bioscience kit). The conditions noted are these: footnotes a,c: tested at 1 uM; 100 nM; average of 2 independent measurements.

The target in the next test is T3, HDAC 6 (Homo sapiens, UniProt Q9UBN7).
T3 sequence (Q9UBN7 1-1215): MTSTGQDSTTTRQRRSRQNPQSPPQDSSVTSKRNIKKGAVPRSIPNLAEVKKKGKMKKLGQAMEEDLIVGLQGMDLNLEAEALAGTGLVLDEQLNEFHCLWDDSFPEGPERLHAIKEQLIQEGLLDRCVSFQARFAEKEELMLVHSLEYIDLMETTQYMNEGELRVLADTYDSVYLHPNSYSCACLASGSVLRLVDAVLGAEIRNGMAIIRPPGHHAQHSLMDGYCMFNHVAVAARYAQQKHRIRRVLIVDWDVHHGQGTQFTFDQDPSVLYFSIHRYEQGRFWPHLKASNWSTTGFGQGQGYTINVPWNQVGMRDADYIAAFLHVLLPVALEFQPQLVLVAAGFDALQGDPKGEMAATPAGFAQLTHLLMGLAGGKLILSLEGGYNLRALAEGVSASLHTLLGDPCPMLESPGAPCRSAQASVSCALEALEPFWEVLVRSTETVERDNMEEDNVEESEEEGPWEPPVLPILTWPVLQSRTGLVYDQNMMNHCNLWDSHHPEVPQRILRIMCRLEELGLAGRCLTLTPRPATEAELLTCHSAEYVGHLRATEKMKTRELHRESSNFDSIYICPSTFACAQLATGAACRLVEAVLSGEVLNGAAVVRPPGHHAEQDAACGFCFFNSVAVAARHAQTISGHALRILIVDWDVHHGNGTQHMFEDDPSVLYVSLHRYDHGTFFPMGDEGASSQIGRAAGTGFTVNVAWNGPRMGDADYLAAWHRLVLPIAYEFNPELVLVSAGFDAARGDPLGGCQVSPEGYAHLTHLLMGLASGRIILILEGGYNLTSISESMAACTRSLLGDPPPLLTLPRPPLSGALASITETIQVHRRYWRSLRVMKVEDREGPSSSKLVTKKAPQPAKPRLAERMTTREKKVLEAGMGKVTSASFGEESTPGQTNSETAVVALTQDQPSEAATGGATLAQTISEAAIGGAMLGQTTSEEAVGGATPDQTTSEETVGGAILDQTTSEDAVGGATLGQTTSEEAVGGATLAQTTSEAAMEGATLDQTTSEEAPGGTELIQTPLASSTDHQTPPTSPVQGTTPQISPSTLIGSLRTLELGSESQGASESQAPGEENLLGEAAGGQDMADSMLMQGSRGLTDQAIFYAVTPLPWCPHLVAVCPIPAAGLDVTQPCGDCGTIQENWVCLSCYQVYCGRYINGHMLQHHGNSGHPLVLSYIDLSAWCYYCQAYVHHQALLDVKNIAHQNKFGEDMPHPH
Kind of test: HDAC 6 assay (BPS Bioscience kit). The conditions noted are these: footnotes b,c: tested at 200 nM; 100 nM; variable, average of 2 independent measurements.

Experimental findings from patent US12600705B2, “Heat shock protein modulators and anti-Huntington disease therapeutic agents” (UNIVERSITY OF PITTSBURGH-OF THE COMMONWEALTH SYSTEM OF …, priority 2020, dated 2026) are described below.

As a reminder, the inhibition is the relative decrease from the control value, in per cent.

Sequence of HDAC 4 human recombinant enzyme (P56524 whole entry): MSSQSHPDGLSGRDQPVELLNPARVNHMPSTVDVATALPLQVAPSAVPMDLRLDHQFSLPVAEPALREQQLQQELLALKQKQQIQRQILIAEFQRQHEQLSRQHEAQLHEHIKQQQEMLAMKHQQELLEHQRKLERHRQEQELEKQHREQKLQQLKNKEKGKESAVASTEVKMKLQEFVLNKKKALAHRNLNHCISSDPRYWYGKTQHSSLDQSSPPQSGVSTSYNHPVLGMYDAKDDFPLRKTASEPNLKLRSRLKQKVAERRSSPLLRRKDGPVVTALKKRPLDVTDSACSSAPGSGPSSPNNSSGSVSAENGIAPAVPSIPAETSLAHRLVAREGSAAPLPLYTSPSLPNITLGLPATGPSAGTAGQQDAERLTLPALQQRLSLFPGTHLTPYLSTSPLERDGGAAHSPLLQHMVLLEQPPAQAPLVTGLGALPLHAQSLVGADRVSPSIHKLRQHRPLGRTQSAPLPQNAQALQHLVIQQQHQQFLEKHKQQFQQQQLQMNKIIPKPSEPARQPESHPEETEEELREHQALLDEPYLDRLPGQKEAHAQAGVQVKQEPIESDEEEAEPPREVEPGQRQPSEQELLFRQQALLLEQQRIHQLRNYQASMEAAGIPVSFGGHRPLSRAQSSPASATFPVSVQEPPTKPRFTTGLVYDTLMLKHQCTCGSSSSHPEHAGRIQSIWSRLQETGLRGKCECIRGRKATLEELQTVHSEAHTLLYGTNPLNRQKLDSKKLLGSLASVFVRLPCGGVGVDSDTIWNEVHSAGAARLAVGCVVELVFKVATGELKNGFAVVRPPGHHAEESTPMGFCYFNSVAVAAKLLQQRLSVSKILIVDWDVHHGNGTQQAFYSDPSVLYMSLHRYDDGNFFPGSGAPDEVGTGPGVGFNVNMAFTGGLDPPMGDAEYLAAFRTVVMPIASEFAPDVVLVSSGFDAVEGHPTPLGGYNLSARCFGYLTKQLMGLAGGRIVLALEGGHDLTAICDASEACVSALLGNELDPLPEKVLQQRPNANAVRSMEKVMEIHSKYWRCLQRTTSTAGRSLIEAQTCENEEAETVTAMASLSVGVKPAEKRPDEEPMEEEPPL
Description for HDAC 1-3: For HDAC 1-3 assays, kits from BioVision Incorporated (https://www.biovision.com/) were used and their recommended protocols followed. […] Each compound was dissolved in DMSO to generate a 100 μM stock solution, then diluted using HPLC-grade water to prepare 10 μM, 2 μM, and 1 μM solutions. These solutions were used for the assays. […] Assays utilized a BioTek Synergy H1 microplate reader and black Nunc MicroWell 96-well optical-bottom plates with polymer base.
HDAC 1-3: 10 μL of each diluted compound (10 μM) and 40 μL of HPLC-grade water were mixed and added into a well on the plate. […] Then, 50 μL of the reaction mixture was added to each well and the solution was mixed thoroughly. The reaction mixture consisted of 500 μL of 10×HDAC Assay buffer, 100 μL of HeLa nuclear extract, 250 μL of HDAC substrate, and 1.65 mL of HPLC-grade water. The plate was then warmed in an incubator at 37° C. with a rocker platform and was incubated for 30 min. After the incubation, 10 μL of Lysine Developer solution was added to each well. The plate was kept in the incubator for an additional 30 min. Afterwards, the plate was analyzed using a BioTek Synergy H1 microplate reader, taking two independent readings per well that were subsequently averaged.
Description for HDAC 5: as §1, §2
Description for HDAC 6: as §1
(§3) HDAC 4 (and, by analogy, HDAC 5, 6, 7, and 8): 40 μL of the parent solution was added to each well on the plate. The parent solution was prepared from a fluorogenic HDAC substrate, a 1 mg/mL solution of bovine serum albumin (BSA) in water, and HDAC assay buffer. 5 μL of the inhibitor buffer (10% DMSO in water) was added to the wells designated as “Blank” and “Positive Control” (no inhibitor). 5 μL of the test compound was added to each well designated as “Test Inhibitor”. Different concentrations of TSA (for a standard curve) was added to each well designated as “Standard.” 5 μL of HDAC assay buffer was added to the “Blank” wells. Then, 5 μL of HDAC 4 human recombinant enzyme was added to the wells designated as “Positive Control”, “Test Inhibitor”, and “Standard.” The plate was then warmed in an incubator at 37° C. with a rocker platform for 30 min After the incubation, 50 μL of 2×HDAC Developer solution was added to each well. The plate was returned to the incubator and was shaken on the rocker for an additional 15 min. at room temperature. Afterwards, the plate was analyzed using a BioTek Synergy H1 microplate reader, taking two independent readings per well that were subsequently averaged.
Description for HDAC 7: as §1, §2
Description for HDAC 8: as §1, §3

For `CCOC(=O)C1=CNS(=O)(=O)N(Cc2ccc(C(=O)O)cc2)C1c1ccc(Cl)cc1Cl` (stereo not shown) [Compound 10i, 4-((3-(2,4-Dichlorophenyl)-4-(ethoxycarbonyl)-1,1-dioxido-3,6-dihydro-2H-1,2,6-thiadiazin-2-yl)methyl)benzoic acid], the “Percent inhibition HDAC 1-3” value in the test with HDAC 1-3 is listed as “NIA”. For the same compound, the “Percent inhibition HDAC 4” value in test [1] is given as “NIA”. For the same compound, in test [2], the “Effect on aggregate suppression compared to the MAL1-271 positive control” value is listed as “equally effective” and the “Activity in cell based HD assay (active analogs of Hsp70 agonist)” value is reported as “active”. At HDAC 7 (Compound tested at 100 nM), the “Percent inhibition HDAC 7” value is “NIA”. In addition, on HDAC 5 (read-out: Percent inhibition HDAC 5), the inhibition at 0.2 µM came out at 9%. Besides, the “Percent inhibition HDAC 8” value on HDAC 8 came out at 37%^e. In addition, the “Percent inhibition HDAC 6” value on HDAC 6 amounted to 40%^d.

As for `COC(=O)CCCN1C=C(C(=O)O)C(c2ccc(Cl)cc2Cl)NS1(=O)=O` (stereo not shown) [Compound 10g, 3-(2,4-Dichlorophenyl)-6-(4-methoxy-4-oxobutyl)-3,6-dihydro-2H-1,2,6-thiadiazine-4-carboxylic acid 1,1-dioxide], the “Percent inhibition HDAC 1-3” value with HDAC 1-3 was “NIA”. Moreover, the “Percent inhibition HDAC 4” value in test [1] is “NIA”. In test [2], the “Effect on aggregate suppression compared to the MAL1-271 positive control” value is reported as “equally effective” and the “Activity in cell based HD assay (active analogs of Hsp70 agonist)” value is given as “active”. For the same compound, the inhibition at 0.1 µM at HDAC 7 (read-out: Percent inhibition HDAC 7) was found to be 1%. Further, the “Percent inhibition HDAC 5” value on HDAC 5 (Compound tested at 200 nM) is listed as “NIA”. Besides, the “Percent inhibition HDAC 8” value at HDAC 8 is on record as 60%^e. Besides, the “Percent inhibition HDAC 6” value on HDAC 6 is “NIA”.
